Measured values as given in ChEMBL document CHEMBL1153281, “Synthesis and evaluation of aniline headgroups for alkynyl thienopyrimidine dual EGFR/ErbB-2 kinase inhibitors” (Bioorg Med Chem Lett, 2009).

What was measured:
[1] = molecular target: T1, Receptor tyrosine-protein kinase erbB-2 (Homo sapiens, UniProt P04626); experiment: Inhibition of ErbB2 by HTRF assay
HN5 [2] = experiment: Antiproliferative activity against human HN5 cells overexpressing EGFR after 3 days; assay type: functional, cell-based; details: HN5, 72 h
BT-474 = experiment: Antiproliferative activity against human BT474 cells overexpressing ErbB2 after 3 days; assay type: functional, cell-based; details: BT-474, 72 h
HFF = experiment: cells; assay type: ADME, cell-based; details: Homo sapiens
[3] = molecular target: T2, Epidermal growth factor receptor (Homo sapiens, UniProt P00533)
Description: Inhibition of EGFR by HTRF assay

[4] = molecular target: T1, Receptor tyrosine-protein kinase erbB-2; experiment: Inhibition of ErbB2 by SPA assay
HN5 [5] = experiment: Ratio of IC50 for human HN5 cells to IC50 for hman BT474 cells; assay type: functional
Mus musculus = experiment: Dose normalized AUC in mouse at 10 mg/kg, po after 6 hrs; assay type: ADME, organism-based; parameters: time < 6 hr, dose 10 mg/kg, route oral; details: in vivo
[6] = Protein binding in rat plasma by HPLC; assay type: ADME, cell-free; details: read-out: PPB (converted)
[7] = molecular target: T2, Epidermal growth factor receptor; experiment: Inhibition of EGFR by SPA assay

T1 sequence (P04626 whole entry): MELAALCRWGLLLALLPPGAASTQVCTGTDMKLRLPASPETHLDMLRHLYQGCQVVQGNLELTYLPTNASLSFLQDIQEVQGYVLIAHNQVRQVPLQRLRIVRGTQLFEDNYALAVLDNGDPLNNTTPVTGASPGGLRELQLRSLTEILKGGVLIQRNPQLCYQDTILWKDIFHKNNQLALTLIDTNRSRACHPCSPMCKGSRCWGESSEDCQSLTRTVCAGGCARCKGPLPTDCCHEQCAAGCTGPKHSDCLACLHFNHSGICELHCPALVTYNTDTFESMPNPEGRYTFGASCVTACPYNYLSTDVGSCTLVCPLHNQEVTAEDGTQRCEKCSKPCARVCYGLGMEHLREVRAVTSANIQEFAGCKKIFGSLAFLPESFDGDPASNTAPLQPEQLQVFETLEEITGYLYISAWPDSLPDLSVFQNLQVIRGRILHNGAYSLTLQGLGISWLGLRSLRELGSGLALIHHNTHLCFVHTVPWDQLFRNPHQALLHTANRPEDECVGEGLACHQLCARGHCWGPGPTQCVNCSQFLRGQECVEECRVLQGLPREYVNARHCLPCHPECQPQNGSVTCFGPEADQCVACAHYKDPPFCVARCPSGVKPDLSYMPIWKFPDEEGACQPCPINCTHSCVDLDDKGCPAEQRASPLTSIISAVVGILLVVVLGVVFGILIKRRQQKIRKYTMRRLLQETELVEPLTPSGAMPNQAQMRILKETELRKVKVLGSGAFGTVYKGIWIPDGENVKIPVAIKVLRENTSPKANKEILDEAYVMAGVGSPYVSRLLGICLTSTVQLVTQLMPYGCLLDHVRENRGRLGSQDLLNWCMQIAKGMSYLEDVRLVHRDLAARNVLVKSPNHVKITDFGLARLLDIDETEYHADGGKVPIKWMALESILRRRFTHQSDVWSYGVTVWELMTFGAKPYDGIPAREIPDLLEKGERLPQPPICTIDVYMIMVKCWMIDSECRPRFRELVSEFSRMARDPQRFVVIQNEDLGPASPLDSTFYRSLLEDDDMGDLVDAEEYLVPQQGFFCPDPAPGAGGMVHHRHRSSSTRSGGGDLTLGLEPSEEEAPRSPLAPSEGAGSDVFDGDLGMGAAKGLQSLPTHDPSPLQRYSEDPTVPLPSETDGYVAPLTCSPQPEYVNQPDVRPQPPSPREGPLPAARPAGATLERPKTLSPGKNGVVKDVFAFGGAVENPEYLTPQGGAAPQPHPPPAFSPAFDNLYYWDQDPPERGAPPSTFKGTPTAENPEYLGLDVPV
T2 sequence (P00533 whole entry): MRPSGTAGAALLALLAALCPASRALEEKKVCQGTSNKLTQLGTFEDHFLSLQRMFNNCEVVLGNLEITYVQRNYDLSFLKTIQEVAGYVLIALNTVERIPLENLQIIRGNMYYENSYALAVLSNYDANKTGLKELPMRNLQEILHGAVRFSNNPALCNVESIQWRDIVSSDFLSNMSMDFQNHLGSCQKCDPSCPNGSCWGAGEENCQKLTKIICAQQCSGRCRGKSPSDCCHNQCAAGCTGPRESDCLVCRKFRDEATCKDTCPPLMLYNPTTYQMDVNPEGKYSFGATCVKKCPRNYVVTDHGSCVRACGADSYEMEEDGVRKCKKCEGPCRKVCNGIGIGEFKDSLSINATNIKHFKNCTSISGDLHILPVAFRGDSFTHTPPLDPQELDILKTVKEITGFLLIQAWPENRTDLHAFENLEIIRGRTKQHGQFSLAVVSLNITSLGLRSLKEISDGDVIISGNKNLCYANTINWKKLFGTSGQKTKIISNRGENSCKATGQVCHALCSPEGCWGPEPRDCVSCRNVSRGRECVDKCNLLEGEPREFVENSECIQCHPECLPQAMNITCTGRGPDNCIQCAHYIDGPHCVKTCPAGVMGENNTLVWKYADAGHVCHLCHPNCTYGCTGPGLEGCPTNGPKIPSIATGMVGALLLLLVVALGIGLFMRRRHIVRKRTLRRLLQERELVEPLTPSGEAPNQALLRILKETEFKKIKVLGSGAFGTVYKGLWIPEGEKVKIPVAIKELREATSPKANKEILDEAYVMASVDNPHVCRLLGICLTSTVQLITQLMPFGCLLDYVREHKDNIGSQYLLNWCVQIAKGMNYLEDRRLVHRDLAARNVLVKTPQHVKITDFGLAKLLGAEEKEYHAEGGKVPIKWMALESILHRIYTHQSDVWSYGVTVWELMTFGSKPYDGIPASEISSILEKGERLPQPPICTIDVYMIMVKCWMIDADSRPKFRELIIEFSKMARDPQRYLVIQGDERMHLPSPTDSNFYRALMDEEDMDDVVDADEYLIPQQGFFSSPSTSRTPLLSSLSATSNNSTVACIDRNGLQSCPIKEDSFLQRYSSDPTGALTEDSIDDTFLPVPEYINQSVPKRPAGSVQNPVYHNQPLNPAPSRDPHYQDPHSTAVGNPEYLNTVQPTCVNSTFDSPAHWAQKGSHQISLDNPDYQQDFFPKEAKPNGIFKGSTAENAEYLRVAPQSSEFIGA

IC50 [1] [nM]	IC50 (BT-474) [nM]	IC50 [3] [nM]	IC50 [4] [nM]	AUC (Mus musculus) [ng·h/mL/mg/kg]	fraction unbound [6]	IC50 [7] [nM]	SMILES	IC50 (HN5 [2]) [nM]	IC50 (HFF) [nM]	Ratio IC50 (HN5 [5])
130	130	120					CC(c1cccc(F)c1)n1ncc2cc(Nc3ncnc4cc(C#C[C@@H]5C[C@@H](OC(=O)N6CCOCC6)CN5)sc34)ccc21 (stereo partly specified)	70	> 1000	
210	120	240					O=C(O[C@H]1CN[C@H](C#Cc2cc3ncnc(Nc4ccc5c(c4)c(F)cn5Cc4ccccc4)c3s2)C1)N1CCOCC1	320	> 1000	
180	120	680					O=C(O[C@H]1CN[C@H](C#Cc2cc3ncnc(Nc4ccc5c(ccn5Cc5cscn5)c4)c3s2)C1)N1CCOCC1	550	> 1000	
	4850		2660				O=C(O[C@H]1CN[C@H](C#Cc2cc3ncnc(Nc4ccc5c(ccn5CCc5ccccc5)c4)c3s2)C1)N1CCOCC1	2020	> 1000	
				51	0.05		O=C(O[C@H]1CN[C@H](C#Cc2cc3ncnc(Nc4ccc5c(cnn5Cc5cccc(F)c5)c4)c3s2)C1)N1CCOCC1	70	> 1000	
260	100	1050					O=C(O[C@H]1CN[C@H](C#Cc2cc3ncnc(Nc4ccc5c(Oc6ccccn6)cccc5c4)c3s2)C1)N1CCOCC1	120	> 1000	
	90			91	0.02		O=C(O[C@H]1CN[C@H](C#Cc2cc3ncnc(Nc4ccc(OCc5cccc(F)c5)c(Cl)c4)c3s2)C1)N1CCOCC1 [GW869810X]	260	> 1000	
	80		60	52	0.033		O=C(O[C@H]1CN[C@H](C#Cc2cc3ncnc(Nc4ccc(Oc5ccccn5)c(Cl)c4)c3s2)C1)N1CCOCC1	280	> 1000	

Second part, the compound before the results:

SMILES	IC50 [1] [nM]	IC50 (BT-474) [nM]	IC50 [3] [nM]	IC50 [4] [nM]	AUC (Mus musculus) [ng·h/mL/mg/kg]	fraction unbound [6]	IC50 [7] [nM]	IC50 (HN5 [2]) [nM]	IC50 (HFF) [nM]	Ratio IC50 (HN5 [5])
O=C(O[C@H]1CN[C@H](C#Cc2cc3ncnc(Nc4ccc5c(cnn5Cc5cc(F)ccc5F)c4)c3s2)C1)N1CCOCC1	35	10	33					250	> 1000	20
O=C(O[C@H]1CN[C@H](C#Cc2cc3ncnc(Nc4ccc(OCc5cccc(F)c5)nc4)c3s2)C1)N1CCOCC1	450	250	2600					490	> 1000	
O=C(O[C@H]1CN[C@H](C#Cc2cc3ncnc(Nc4ccc5c(cnn5S(=O)(=O)c5cccc(F)c5)c4)c3s2)C1)N1CCOCC1	85	110	230					540	> 1000	
O=C(O[C@H]1CN[C@H](C#Cc2cc3ncnc(Nc4ccc(OCc5cscn5)c(Cl)c4)c3s2)C1)N1CCOCC1	60	70	120			0.051		440	> 1000	
O=C(O[C@H]1CN[C@H](C#Cc2cc3ncnc(Nc4ccc(Oc5ccnc6ccc(F)cc56)c(Cl)c4)c3s2)C1)N1CCOCC1	180	140	280			0.03		390	> 1000	
O=C(O[C@H]1CN[C@H](C#Cc2cc3ncnc(Nc4ccc(OCc5ccccn5)c(Cl)c4)c3s2)C1)N1CCOCC1		60		30	120	0.031		240	> 1000	
Cc1cc(Oc2ccc(Nc3ncnc4cc(C#C[C@@H]5C[C@@H](OC(=O)N6CCOCC6)CN5)sc34)cc2Cl)no1	370	130	400					1450	> 1000	
O=C(O[C@H]1CN[C@H](C#Cc2cc3ncnc(Nc4ccc(Cc5ccccc5)cc4)c3s2)C1)N1CCOCC1		70	240			0.036		270	> 1000	
O=C(O[C@H]1CN[C@H](C#Cc2cc3ncnc(Nc4ccc(Sc5cccc(F)c5)c(Cl)c4)c3s2)C1)N1CCOCC1	800	150	630			0.024		310	> 1000	
O=C(O[C@H]1CN[C@H](C#Cc2cc3ncnc(Nc4ccc5c(ccn5S(=O)(=O)c5ccsc5)c4)c3s2)C1)N1CCOCC1		120		120			150	630	> 1000	
O=C(O[C@H]1CN[C@H](C#Cc2cc3ncnc(Nc4ccc(Sc5ccccn5)cc4)c3s2)C1)N1CCOCC1	220	100	1650					380	> 1000	
O=C(O[C@H]1CN[C@H](C#Cc2cc3ncnc(Nc4ccc5c(cnn5Cc5ccccc5)c4)c3s2)C1)N1CCOCC1	50	20	80		98	0.027		70	> 1000	
O=C(O[C@H]1CN[C@H](C#Cc2cc3ncnc(Nc4ccc5c(ccn5Cc5ccccc5)c4)c3s2)C1)N1CCOCC1	60	110	90					190	> 1000	
